Measurements published in patent publication US20250339443A1, “METHOD FOR TREATING OR PREVENTING CALCIUM RELEASE-ACTIVATED CALCIUM CHANNEL OR DISCOIDIN DOMAIN RECEPTOR 2 RELATED DISORDERS OR CONDITIONS” (LumiSTAR Biotechnology, Inc., priority 2023, published 2025).
Entries after “also recorded” stand apart in the source; their conditions may differ.

How the values were obtained:
[1] = system: UUO-induced renal fibrosis; experiment: Unilateral ureteral obstruction (UUO) renal fibrosis model; assay type: in vivo, mouse; conditions: for UUO-induced downregulation of E-cadherin (kidney, Western blot) / UUO-induced upregulation of integrin β1, DDR2, collagen 1a1, and α-SMA (kidney, Western blot) / area positively stained with fibrillar collagen (Sirius red) / histology: UUO-induced tubular dilation and interstitial expansion (H&E): 5 mg/kg/day for 7 days; for apoptotic tubular cells (TUNEL): 5 mg/kg/day for 7 days during ureter obstruction
Method: Surgical ligation was performed on the left ureter of 7-to-8-week-old male mice using a nylon surgical suture. Subsequently, the mice were treated with 5 mg/kg/day of DMSO (control), BTP2, WRG-28, or Av for 7 days. […] FIG. 5B illustrates the evaluation of fibrillar collagen expression levels via Sirius red staining. FIG. 5C presents the measurement of the Sirius red-positive area using Image J. FIG. 5D, FIG. 5E, FIG. 5F, FIG. 5G, and FIG. 5H depict the protein levels of integrin β1, DDR2, Collagen 1a1, α-SMA, and E-cadherin in kidney samples from mice treated with 5 mg/kg/day of BTP2 (FIG. 5D), WRG-28 (FIG. 5F), or Av (FIG. 5H), which were assessed by Western blot analysis. […] FIG. 5K illustrates the evaluation of apoptotic cells from 5-10 pictures in each condition.
Cell lysates were harvested in RIPA buffer (150 mM NaCl, 1 mM EGTA, 50 mM Tris pH 7.4, 10% glycerol, 1% Triton X-100, 1% sodium deoxycholate, 0.1% SDS, and protease inhibitor cocktail) and collected from culture dish with cell scrapers. For tissue sample preparation, half of the kidney tissues were cut into ˜1 mm3 and then put into 500 μl RIPA buffer in 2 ml tubes. Mechanical homogenizers by agitating beads at high speeds for 30 seconds were used for tissue protein extraction. Protein samples in supernatants were collected after centrifuging the tubes at 10000 g for 10 min at 4° C. 20-30 μg protein samples were resolved by 7.5% or 10% SDS-PAGE. The protein expression levels were assessed by specific primary antibodies, including antibodies against phosphotyrosine (clone 4G10; Millipore), DDR2 (R&D), α-SMA (Sigma), Collagen 1a1 (Boster), E-cadherin (BD Biosciences), SGLT2 (Proteintech), NHE1 (Novus) and β-actin (Clone C4, Millipore), followed by incubating with secondary antibodies conjugated with HRP and detected by ECL kit (Thermo Scientific).
Procedures involving animal subjects have been approved by the Institutional Animal Care and Use Committee (IACUC) at the National Laboratory Animal Center. 7-8 weeks old male C57BL/6 mice were obtained from the animal center. Unilateral ureteral obstruction (UUO) was performed by ligating the left ureter and mice were treated with 5 mg/kg/day DMSO, BTP2, WRG-28, or Av for 7 days after ligation. After 7 days, mice were sacrificed and the kidneys were removed and used for analysis. One-quarter of the kidney was fixed by 4% paraformaldehyde and embedded in paraffin or one-quarter of the kidney was embedded in the Tissue-Tek OCT compound. Half of the kidneys are used for protein analysis. In the reversible unilateral ureteral obstruction (RUUO) experiment, the ligated-left ureter was re-connected to the bladder after UUO surgery for 7 days. The compounds, WRG-28 and Av, were injected during ligation (7*/15d) or after ligation was released (7/15*d). To assess the kidney function, the right ureter was ligated the day before leaving mice in the metabolic cage. The urine and blood were collected for blood urea nitrogen (BUN) and creatinine (CRE) test.
Deparaffinize and rehydrate tissue slides were immersed in filtered Harris Hematoxylin for 10 seconds. After extensively washing in tap water, samples were immersed in Alcoholic-Eosin for 2 minutes. The tissue was then dehydrated and mounted by resinous medium and glass coverslips.
Deparaffinize and rehydrate tissue slides were stained with Picrosirius red for one hour, followed by an extensive wash with acidified water. After dehydration through 3 runs of change of 95% ethanol, 2 runs of change of 100% ethanol, and 3 runs of change of xylene, tissue slides were mounted by resinous mounting medium and glass coverslips. […]
The TUNEL assay kit was purchased from Abcam (ab206386). The procedure was carried out following the manufactory's instructions. […]

[2] = system: NRK49F cells; experiment: Collagen gel contraction assay; assay type: cell-based, rat; conditions: NRK49F in collagen gel, 10 ng/ml TGF-β1, 10 μM, 3 days, 8 hours after release
Method: FIG. 2A, FIG. 2B, FIG. 2C, FIG. 2D, FIG. 2E, FIG. 2F, FIG. 2G-1, and FIG. 2G-2 display how WRG-28 and Av suppress TGF-β1-induced fibroblasts activation and the differentiation of pericytes into myofibroblasts. […] Each bar represents the mean #SEM. […] The protein levels of collagen 1a1 and α-SMA were assessed using Western blot analysis under various conditions. […] Each bar represents mean±SEM. […] The images were acquired using a confocal microscope (Olympus, MPE). FIG. 2G-1 and FIG. 2G-2 display the measurement of angles between collagen fibers and the cell membrane, conducted using Image J. At least five different images from each condition were analyzed. Each bar represents mean±SEM. In all graphs, *, **, and *** represent p-value <0.05, 0.01, and 0.001, respectively. ‘ns’ denotes p-value >0.05, indicating no significant difference.
The collagen gel was made by mixing 3 ml rat tail collagen (Corning), 1 ml 5.7×DMEM, 500 μl 2.5% NaHCO3, 1 ml 0.1 M HEPES, 100 μl 0.17 M CaCl2, 100 μl 1 N NaOH, and 4.3 ml culture medium containing 2×10^6 NRK49F cells. 2 ml medium with or without 10 ng/ml TGF-β1 was applied onto gel in each well of 6 well-plate and cells were incubated for 3 days. After that gels were released from the culture plate and the gel area was quantified by Image J. […]

| Compound | UUO-induced downregulation of E-cadherin (kidney, Western blot) [1] | UUO-induced upregulation of integrin β1, DDR2, collagen 1a1, and α-SMA (kidney, Western blot) [1] | area positively stained with fibrillar collagen (Sirius red) [1] | histology: UUO-induced tubular dilation and interstitial expansion (H&E) [1] | apoptotic tubular cells (TUNEL) [1] | gel shrinkage (relative gel area) upon TGF-β1 stimulation [2] |
| --- | --- | --- | --- | --- | --- | --- |
| Cc1nnsc1C(=O)Nc1ccc(-n2nc(C(F)(F)F)cc2C(F)(F)F)cc1 [BTP2] | reversing | suppressed | significantly reduced | appeared to mitigate the effects caused by UUO | notably reduced | markedly reduced |
| CCNS(=O)(=O)c1ccc(COc2ccc3nc4ccc(=O)cc-4oc3c2)cc1 [WRG-28] | reversing | suppressed | significantly reduced | appeared to mitigate the effects caused by UUO | notably reduced; also recorded: significantly reduced | markedly reduced |
